Assay results as given in ChEMBL document CHEMBL5143541, “Novel structural-related analogs of PFI-3 (SRAPs) that target the BRG1 catalytic subunit of the SWI/SNF complex increase the activity of temozolomide in glioblastoma cells” (Bioorg Med Chem, 2022).
Active and inactive are the calls of the source. No cut-off for these calls is given here.

What was measured:
MT330 [1] = assay: Induction of cell death in human MT330 cells assessed as reduction in cell viability at 2 uM after 3 days by ELISA; assay type: functional, cell-based; details: time 3.0 day
[2] = biological target: SWI/SNF-related matrix-associated actin-dependent regulator of chromatin subfamily A member 4 (Homo sapiens) (UniProt P51532); assay: Binding affinity to epitope-tagged BRG1 bromodomain (unknown origin) expressed in MT330 cells assessed as thermostability at < 54.2 degC at 30 uM for 2 hrs by […]; assay type: cell-based
MT330 [3] = assay: Anti-tumor activity against human MT330 cells xenografted in NSG mouse assessed as reduction in tumor growth at 10 mg/kg, ip for alterate days combination with TMZ and measured after 8 weeks; assay type: functional, organism-based
LN-229 [4] = assay: Antiproliferative activity against human LN-229 cells assessed as reduction in cell viability at 2 uM combination with TMZ up to 7 days by incucyte live cell assay; assay type: functional, cell-based; details: time <= 7.0 day
LN-229 [5] = assay: Antiproliferative activity against human LN-229 cells assessed as reduction in cell viability at 2 uM up to 7 days by incucyte live cell assay; assay type: functional, cell-based; details: time <= 7.0 day
MT330 [6] = assay: Induction of cell death in human MT330 cells assessed as reduction in cell viability at 2 uM combination with TMZ after 3 days by ELISA; assay type: functional, cell-based; details: time 3.0 day
MT330 [7] = assay: Anti-tumor activity against human MT330 cells xenografted in NSG mouse assessed as reduction in tumor growth at 10 mg/kg, ip for alterate days combination with TMZ and measured after 2 weeks; assay type: functional, organism-based
MT330 [8] = assay: Induction of cell death in human MT330 cells assessed as reduction in cell viability at 50 uM after 3 days by ELISA; assay type: functional, cell-based; details: time 3.0 day
LN-229 [9] = assay: Antiproliferative activity against human LN-229 cells assessed as reduction in cell viability at 80 uM up to 7 days by incucyte live cell assay; assay type: functional, cell-based; details: time <= 7.0 day

Sequence of SWI/SNF-related matrix-associated actin-dependent regulator of chromatin subfamily A member 4 (Homo sapiens) (P51532 whole entry): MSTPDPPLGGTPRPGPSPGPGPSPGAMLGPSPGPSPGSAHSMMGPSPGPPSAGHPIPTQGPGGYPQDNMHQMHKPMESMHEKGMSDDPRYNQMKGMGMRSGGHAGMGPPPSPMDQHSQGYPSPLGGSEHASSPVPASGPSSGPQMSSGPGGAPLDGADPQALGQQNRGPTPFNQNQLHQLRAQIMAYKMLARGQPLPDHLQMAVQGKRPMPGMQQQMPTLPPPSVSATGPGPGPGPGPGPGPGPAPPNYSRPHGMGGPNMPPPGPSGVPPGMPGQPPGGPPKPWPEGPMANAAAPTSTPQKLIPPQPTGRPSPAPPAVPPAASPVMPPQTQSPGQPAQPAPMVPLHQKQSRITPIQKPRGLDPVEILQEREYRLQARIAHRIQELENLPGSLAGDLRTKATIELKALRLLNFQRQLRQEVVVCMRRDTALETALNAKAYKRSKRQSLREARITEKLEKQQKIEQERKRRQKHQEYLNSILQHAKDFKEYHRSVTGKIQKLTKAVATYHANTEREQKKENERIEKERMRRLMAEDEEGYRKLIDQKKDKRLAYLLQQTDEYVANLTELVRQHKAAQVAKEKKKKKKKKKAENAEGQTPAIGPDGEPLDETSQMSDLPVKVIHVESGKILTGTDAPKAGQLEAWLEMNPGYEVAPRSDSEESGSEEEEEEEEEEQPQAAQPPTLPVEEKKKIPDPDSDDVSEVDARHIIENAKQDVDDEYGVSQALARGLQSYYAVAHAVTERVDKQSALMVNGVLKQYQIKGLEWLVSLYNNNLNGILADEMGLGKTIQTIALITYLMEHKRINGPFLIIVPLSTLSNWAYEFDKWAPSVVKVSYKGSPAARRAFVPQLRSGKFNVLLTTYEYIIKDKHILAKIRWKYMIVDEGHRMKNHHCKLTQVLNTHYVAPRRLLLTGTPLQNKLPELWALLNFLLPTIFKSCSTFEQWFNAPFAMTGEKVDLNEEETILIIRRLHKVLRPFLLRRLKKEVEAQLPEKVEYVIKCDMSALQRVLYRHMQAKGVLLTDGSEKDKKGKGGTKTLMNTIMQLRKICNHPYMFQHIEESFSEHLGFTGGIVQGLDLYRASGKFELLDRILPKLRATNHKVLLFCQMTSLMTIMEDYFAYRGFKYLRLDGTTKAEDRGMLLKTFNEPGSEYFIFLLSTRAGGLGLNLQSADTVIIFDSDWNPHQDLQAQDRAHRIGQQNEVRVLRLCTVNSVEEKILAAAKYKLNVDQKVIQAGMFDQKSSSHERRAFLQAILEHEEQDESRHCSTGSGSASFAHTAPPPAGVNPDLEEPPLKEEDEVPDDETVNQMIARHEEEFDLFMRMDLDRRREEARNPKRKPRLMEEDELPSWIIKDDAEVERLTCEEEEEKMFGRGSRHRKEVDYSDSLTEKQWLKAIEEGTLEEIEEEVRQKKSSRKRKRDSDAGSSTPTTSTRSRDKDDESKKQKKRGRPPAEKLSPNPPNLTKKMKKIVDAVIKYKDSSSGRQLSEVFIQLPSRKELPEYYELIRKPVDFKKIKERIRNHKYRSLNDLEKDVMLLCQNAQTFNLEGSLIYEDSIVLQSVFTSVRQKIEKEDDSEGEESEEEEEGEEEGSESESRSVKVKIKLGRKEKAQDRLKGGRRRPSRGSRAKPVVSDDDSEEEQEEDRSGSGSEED

SMILES	Activity (MT330 [1])	Activity (MT330 [6])	other results
O=C(/C=C/N1C[C@H]2C[C@@H]1CN2c1ccccn1)c1ccccc1O	Active	Active	Activity [2]: Active; TGI (MT330 [3]): Active; Activity (LN-229 [4]): Active; Activity (LN-229 [5]): Active; TGI (MT330 [7]): Active
O=C(/C=C/N1C[C@H]2C[C@@H]1CN2c1ccccn1)c1ccccc1Cl	Active	Active	
COc1ccc(N2C[C@H]3C[C@@H]2CN3/C=C/C(=O)c2cc(F)ccc2O)cc1	Active	Active	
O=C(/C=C/N1C[C@H]2C[C@@H]1CN2c1ccc(F)cc1)c1ccccc1Cl	Active	Active	
O=C(/C=C/N1C[C@H]2C[C@@H]1CN2c1ccccn1)c1cc(F)ccc1O	Active	Active	
O=C(/C=C/N1C[C@H]2C[C@@H]1CN2c1ccccn1)c1cc(Br)cc(Br)c1O	Active	Active	TGI (MT330 [3]): Active; Activity (LN-229 [4]): Active; Activity (LN-229 [5]): Active; TGI (MT330 [7]): Active
O=C(/C=C/N1C[C@H]2C[C@@H]1CN2c1ccc(F)cc1)c1cc(F)ccc1O	Active	Active	
O=C(/C=C/N1C[C@H]2C[C@@H]1CN2c1ccc(F)cc1)c1ccccc1O	Active	Active	
COc1ccc(N2C[C@H]3C[C@@H]2CN3/C=C/C(=O)c2ccccc2O)cc1	Active	Active	
Cn1nnc2c(C(N)=O)ncn2c1=O			Activity (MT330 [8]): Active; Activity (LN-229 [9]): Active
O=C(/C=C/N1C[C@H]2C[C@@H]1CN2c1ccccn1)c1ccc(Cl)cc1O	Active	Active	
O=C(/C=C/N1C[C@H]2C[C@@H]1CN2c1ccc(F)cc1)c1ccccc1	Active	Active	TGI (MT330 [3]): Active; Activity (LN-229 [4]): Active; Activity (LN-229 [5]): Active; TGI (MT330 [7]): Active
O=C(/C=C/N1C[C@H]2C[C@@H]1CN2c1ccccn1)c1cc(Br)ccc1O	Active	Active	
COc1ccc(N2C[C@H]3C[C@@H]2CN3/C=C/C(=O)c2ccccc2Cl)cc1	Active	Active	
